Assay results reported in patent publication US20220324868A1, “Pyrazolone-Fused Pyrimidine Compound, and Preparation Method and Use Therefor” (SHANGHAI PHARMACEUTICALS HOLDING CO., LTD., priority 2019, published 2022).
Read-outs that look alike come from different tables or passages of the source.

Assays:
Hela cells = experiment: Proliferation inhibition of Hela cells (Luminescence ATP Detection, ATPlite); assay type: cell-based; settings: Homo sapiens, 72 hours
Experimental: (§1) I. Proliferation Inhibitory of the Compound on COLO 205 Cells and Hela Cells.
(§2) COLO205 cells, purchased from SIBS, generation P11; Hela purchased from ATCC, generation P13.
Cell culture and inoculation: on the first day of the experiment, cells in normal culture were taken in their exponential growth state, digested and dispersed, the cell density was adjusted to 9×10^3 cells/mL, and 40 μL per well were inoculated into 384-well cell culture plates; after inoculation was completed, the microplates were placed at 37° C. and 5% CO2 for incubation.
(§3) Drug treatment of cells: on the second day of the experiment, microplates were removed from the incubator, 9× compound were added to each well in the microplate, and 5 μL was added to each well, wherein there were 2 replicate wells for each drug concentration and 10 drug concentrations for each compound. According to different cell lines, the initial concentration of each compound was different, after the completion, the microplate was cultured at 37° C. and 5% CO2 for 72 hours.
(§4) Data collection: the microplates were removed from the incubator and equilibrated at room temperature for 30 minutes. 40 μL of ATPlite reaction mixture after room temperature equilibrium was added to each well, the solution was shaken at room temperature of 1300 rpm for 2 minutes, and then the microplate was placed in a HERAEUS Multifuge X1R centrifuge at 2000 rpm for 1 minute; after equilibrium at room temperature for 10 minutes, the fluorescence signal value was measured on EnVision™.
(§5) Calculation of cell viability: Cell viability(%)=signal value of administration/signal value of controlx 100%. Graphpad Prism 5.0 was used to fit Log(inhibitor) vs. response-Variable slope (four parameters) curves to the fluorescence signal values at each concentration, and the corresponding IC50 (half maximal inhibitory concentration) was calculated.

COLO 205 cells = experiment: Proliferation inhibition of COLO 205 cells (Luminescence ATP Detection, ATPlite); assay type: cell-based; settings: Homo sapiens; p53-deficient cell line COLO 205, 72 hours
Experimental: as §1, §2
as §3, with “third” for “second”
as §4, with “collection: The” for “collection: the”, “minutes. 100” for “minutes. 40”
as §5

WEE1 kinase = biological target: T1, WEE1 kinase (Homo sapiens, UniProt P30291); experiment: Inhibitory effect on WEE1 kinase in vitro (ELISA); assay type: biochemical; settings: ATP concentration of Km (12 μM), WEE1 0.15 ng/μL, 60 min
T1 construct: purchased CarnaBiosciences, Inc. 05-177
T1 sequence (P30291 whole entry): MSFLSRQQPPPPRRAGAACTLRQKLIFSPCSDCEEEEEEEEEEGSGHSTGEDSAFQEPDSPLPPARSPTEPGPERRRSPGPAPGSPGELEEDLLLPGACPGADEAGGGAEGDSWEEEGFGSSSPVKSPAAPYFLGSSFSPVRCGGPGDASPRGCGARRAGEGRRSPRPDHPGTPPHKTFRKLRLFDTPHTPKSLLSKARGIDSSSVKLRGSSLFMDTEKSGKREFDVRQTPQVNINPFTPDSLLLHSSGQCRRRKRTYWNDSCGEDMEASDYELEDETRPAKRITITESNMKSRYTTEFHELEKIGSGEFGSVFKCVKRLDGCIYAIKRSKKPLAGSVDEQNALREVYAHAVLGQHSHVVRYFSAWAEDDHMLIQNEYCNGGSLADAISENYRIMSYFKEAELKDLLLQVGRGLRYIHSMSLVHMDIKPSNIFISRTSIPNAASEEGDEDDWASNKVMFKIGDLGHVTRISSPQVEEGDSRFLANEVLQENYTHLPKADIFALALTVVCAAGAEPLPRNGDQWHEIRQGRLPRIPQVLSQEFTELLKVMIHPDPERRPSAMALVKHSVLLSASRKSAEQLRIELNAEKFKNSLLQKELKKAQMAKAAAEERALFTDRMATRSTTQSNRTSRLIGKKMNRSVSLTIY
Experimental: I. Inhibitory Effect of Compound on WEE1 Kinase In Vitro
The tested compounds were screened on WEE1 kinase with ATP concentration of Km by ELISA. Three compounds were screened on WEE1 kinase to evaluate the kinase inhibitory activity of the tested compounds. In the detection process, the initial concentration of the tested compounds was all selected as 100 nM, and each compound was selected with 6 gradient dilution concentrations, the gradient dilution ratio was 4-fold, and two replicate wells were detected for each concentration, MK1775 was used as the standard control.
1. Coating substrate: 1) An appropriate volume of substrate storage solution protein tyrosinase (PTK) substrate (poly-Glu-Tyr) was taken, diluted 10 times with PBS, and the concentration was diluted from […]. The mixture was added to a high adsorption 96-well plate at 125 μL per well. The plate was placed in an incubator at 37° C. for overnight coating. 2) After 24 hours, the 96-well plate was taken out, the liquid in the 96-well plate was poured out, cleaned with washing buffer for 3 times, and the incubator at 37 was inverted and dried for 2 hours.
3. Enzyme reaction stage: 1) WEE1 kinase and ATP were prepared into 2× enzyme solution and 4× ATP solution respectively with 1× reaction buffer.
4. Reaction termination stage: 1) the reaction mixture in the plate was poured out, 200 μL of washing buffer was added to each well, and washed for 5 times; the primary antibody P-Tyr (PY99) (dilution ratio 1:2000) was added, 100 μL per well, at room temperature for 30 min. 2) The primary antibody in the plate was poured out, 200 μL of washing buffer was added to each well, and washed for 5 times; the second antibody Anti-mouse IgG HRP-linked Antibody (dilution ratio 1:2000) was added, 100 μL per well, at room temperature for 30 min. 3) The secondary antibody in the plate was poured out, washed 5 times with washing buffer, and TMB was added, 100 μL per well, and colored for 10-30 min, depending on the color depth. The reaction was terminated with 1N sulfuric acid before reading.
5. […] 2) Graphpad Prism 5.0 was used to fit Log(inhibitor) vs. response-Variable slope (four parameters) curves to the data, and the corresponding IC50 (half maximal inhibitory concentration) was calculated.

SMILES | IC50 (Hela cells) [nM] | IC50 (COLO 205 cells) [nM] | IC50 (WEE1 kinase; read-out: WEE1 IC50) [nM] | IC50 (WEE1 kinase; WEE1 IC50, nM) [nM]
C=CCn1c(=O)c2cnc(Nc3ccc(C4CCC(N(C)C)CC4)cc3)nc2n1-c1ccc2c(n1)C(C)(O)CC2 (stereo not drawn) [Compound I-34] | 214 | 1580 | 4.79 | –
C=CCn1c(=O)c2cnc(Nc3ccc(C4CCN(C)CC4)cc3)nc2n1-c1ccc2c(n1)C(O)CC2 (stereo not drawn) [Compound I-3] | 434 | 5150 | 2.68 | –
C=CCn1c(=O)c2cnc(Nc3ccc(N4CCN(CC5CC5)CC4)cc3)nc2n1-c1ccc2c(n1)C(O)CC2 (stereo not drawn) [Compound I-4] | 395 | 1970 | 4.43 | –
C=CCn1c(=O)c2cnc(Nc3ccc(N4CC5(CCN(CC)CC5)C4)cc3)nc2n1-c1ccc2c(n1)C(O)CC2 (stereo not drawn) [Compound I-11] | 317 | 1190 | 11.3 | –
C=CCn1c(=O)c2cnc(Nc3ccc(N4CCN(C)CC4)cc3)nc2n1-c1ccc2c(n1)C(O)CC2 (stereo not drawn) [Compound I-1, 2-allyl-1-(7-hydroxy-6,7-dihydro-5H-cyclopenta[b]pyridin-2-yl)-6-((4-(4-methylpiperazin-1-yl)phenyl)amino)-1,2-dihydro-3H-pyrazolo[3,4-d]pyrimidin-3-one] | 495 | 1880 | – | 2.85
C=CCn1c(=O)c2cnc(Nc3ccc(N4CCC(CN(C)C)CC4)cc3)nc2n1-c1ccc2c(n1)C(O)CC2 (stereo not drawn) [Compound I-5, 2-allyl-6-((4-(4-((dimethylamino)methyl)piperidin-1-yl)phenyl)amino)-1-(7-hydroxy-6,7-dihydro-5H-cyclopenta[b]pyridin-2-yl)-1,2-dihydro-3H-pyrazolo[3,4-d]pyrimidin-3-one] | 392 | 2550 | 3.62 | –
C=CCn1c(=O)c2cnc(Nc3ccc(N4CCN(C)CC4)cc3)nc2n1-c1ccc2c(n1)C(O)CCC2 (stereo not drawn) [Compound I-23] | 534 | 1670 | 2.87 | –

Now those with a lower IC50 (Hela cells), led by results:

IC50 (Hela cells) [nM] | IC50 (COLO 205 cells) [nM] | IC50 (WEE1 kinase; read-out: WEE1 IC50) [nM] | IC50 (WEE1 kinase; WEE1 IC50, nM) [nM] | SMILES
206 | 920 | 8.59 | – | C=CCn1c(=O)c2cnc(Nc3ccc(N4CC5(CCN(C)CC5)C4)cc3)nc2n1-c1ccc2c(n1)C(O)CC2 (stereo not drawn) [Compound I-10]
191 | 614 | 2.87 | – | C=CCn1c(=O)c2cnc(Nc3ccc(N4CCC5(CCN(C)CC5)CC4)cc3)nc2n1-c1ccc2c(n1)C(O)CC2 (stereo not drawn) [Compound I-9, 2-allyl-1-(7-hydroxy-6,7-dihydro-5H-cyclopenta[b]pyridin-2-yl)-6-((4-(9-methyl-3,9-diazaspiro[5.5]undecan-3-yl)phenyl)amino)-1,2-dihydro-3H-pyrazolo[3,4-d]pyrimidin-3-one]
200 | 891 | 3.48 | – | C=CCn1c(=O)c2cnc(Nc3ccc(N4C[C@H]5CNC[C@H]5C4)cc3)nc2n1-c1ccc2c(n1)C(C)(O)CCC2 (stereo partly drawn) [Compound I-33, 2-allyl-6-((4-((3aR, 6aS)hexahydropyrrolo[3,4-c]pyrrolo-2(1H)-yl)phenyl)amino)-1-(8-hydroxy-8-methyl-5,6,7,8-tetrahydroquinolin-2-yl)-1,2-dihydro-3H-pyrazolo[3,4-d]pyrimidin-3-one]
147 | 473 | 3.15 | – | C=CCn1c(=O)c2cnc(Nc3ccc(N4CC5CN(C)CC5C4)cc3)nc2n1-c1ccc2c(n1)C(C)(O)CC2 (stereo not drawn) [Compound I-35, 2-allyl-1-(7-hydroxy-7-methyl-6,7-dihydro-5H-cyclopenta[b]pyridin-2-yl)-6-((4-(-5-methylhexahydropyrrolo[3,4-c]pyrrol-2(1H)-yl)phenyl)amino)-1,2-dihydro-3H-pyrazolo[3,4-d]pyrimidin-3-one]
170 | 944 | – | 1.89 | C=CCn1c(=O)c2cnc(Nc3ccc(N4CCN(C)CC4)cc3)nc2n1-c1ccc2c(n1)C(C)(O)CCC2 (stereo not drawn) [Compound I-19, 2-allyl-1-(8-hydroxy-8-methyl-5,6,7,8-tetrahydroquinolin-2-yl)-6-((4-(4-methylpiperazin-1-yl)phenyl)amino)-1,2-dihydro-3H-pyrazolo[3,4-d]pyrimidin-3-one]
192 | 363 | 2.81 | – | C=CCn1c(=O)c2cnc(Nc3ccc(N4CC5(CCN(C)CC5)C4)cc3)nc2n1-c1ccc2c(n1)C(C)(O)CC2 (stereo not drawn) [Compound I-14, 2-allyl-1-(7-hydroxy-7-methyl-6,7-dihydro-5H-cyclopenta[b]pyridin-2-yl)-6-((4-(7-methyl-2,7-diazaspiro[3.5]nonan-2-yl)phenyl)amino)-1,2-dihydro-3H-pyrazolo[3,4-d]pyrimidin-3-one]
